Source: patent US11969425B2, “Inhibitor of indoleamine-2,3-dioxygenase (IDO)” (InventisBio LLC, priority 2016, dated 2024)

The compounds below were run on kynurenine production in HeLa cells (assay: Inhibition of kynurenine production in HeLa cells). Conditions: HeLa cells, human IFN-γ 50 ng/mL, 48 h, kynurenine read at 480 nm; read-out: IC50.
Format: cell-based, human
Procedure: The effect of compounds described herein on the inhibition of kynurenine production in HeLa cells (derived from human cervical cancer) was determined. HeLa cells were seeded into a 96-well culture plate at a density of 5×10^3 per well in RPMI1640/phenol red free media (from GIBCO) with 2 mM L-glutamine and 10% fetal bovine serum (FBS, from GIBCO) and grown overnight in a 37° C. incubator with 5% CO2. Twenty-four hours later, human IFN-γ (from GIBCO) (final concentration 50 ng/mL) and test compound solutions (serially diluted to different wells) were added to each well with a final volume of 200 uL per well. Forty-eight hours after incubation with compounds, 140 uL supernatant was taken from each well and was transferred to a new 96-well plate. Ten microliters of 6.1 N trichloroacetic acid were added into each well, mixed and incubated at 50° C. for 30 minutes. The reaction mixture was then centrifuged for 10 minutes at 2500 rpm and 100 uL of the supernatant per well was transferred to another 96 well plate and mixed with 100 uL of 2% (w/v) p-dimethylaminobenzaldehyde in acetic acid. The yellow color derived from kynurenine was measured at 480 nm using a SPECTRAmax i3 reader. Each compound concentration was done in triplicates and compound IC50 value was calculated using nonlinear regression using Graphpad Prism 5.0.
The inhibitory activity of representative compounds described herein, compared with another IDO inhibitor, such as INCB-24360, Controls 1 and 2 are shown in Table 2.

IC50 [nM]	SMILES
0.1	CCC(C(=O)O)c1ccc(N(CC(C)C)CC(C)C)c(NC(=O)Nc2cc(C)no2)c1 (single isomer, unassigned) [Compound 59B]
12	CCC(C(=O)O)c1ccc(N(CC(C)C)C2CCOCC2)c(NC(=O)Nc2ccc(F)cc2F)c1 (single isomer, unassigned) [Compound 65B]
0.2	CCC(C(=O)O)c1ccc(N(CC(C)C)C2CCCCC2)c(NC(=O)Nc2ccc(F)cc2F)c1 (single isomer, unassigned) [Compound 62B]
61.5	CC(C)CN(CC(C)(C)O)c1ccc(C2(C(=O)O)CCC2)cc1NC(=O)Nc1ccc(F)cc1F [Compound 23]
0.3	CCC(C(=O)O)c1ccc(N(CC(C)C)C2CCOCC2)c(Nc2ccc3c(c2)OC(F)(F)O3)c1 (single isomer, unassigned) [Compound 71A]
0.7	CCC(C(=O)O)c1ccc(N(CC(C)C)C2CCOCC2)c(Nc2ccc(Cl)cc2)c1 (centres unmarked) [Compound 68B]
4.2	CCC(C(=O)O)c1ccc(N(CC(C)C)C2CCCCC2)c(NC(=O)Nc2cncnc2)c1 (single isomer, unassigned) [Compound 64A]
33	CCC(C(=O)O)c1ccc(N(CC(C)C)CC(C)C)c(Nc2ccc(S(C)(=O)=O)cc2)c1 (single isomer, unassigned) [Compound 60A]

Same assay, conditions: Homo sapiens, HeLa, 48 h, HeLa cells, human IFN-γ 50 ng/mL, kynurenine read at 480 nm, read-out: IC50

IC50 [nM]	SMILES
25	CCOc1ncc(Nc2cc(C(C)(C)C(=O)O)ccc2N(CC2CC2)C(C)C)cn1 [Compound 114]
> 316	CCOc1ncc(Nc2cc(CC(=O)O)ccc2N(CC(C)C)C2CCOCC2)cn1 [Compound 109]
0.4	CC(C)N(CC1CC1)c1ccc(C2(C(=O)O)CCC2)cc1Nc1ccc(Cl)cn1 [Compound 113]
0.2	CC(C)CN(c1ccc(C2(C(=O)O)CCC2)cc1Nc1ccc(Cl)c(F)c1)C1CCOCC1 [Compound 101]
2.5	CCC(C(=O)O)c1ccc(N(CC(C)C)C2CCCCC2)c(NC(=O)Nc2cc(C)no2)c1 (centres unmarked) [Compound 63A]
0.3	CCOc1ncc(Nc2cc(C3(C(=O)O)CCC3)ccc2N(CC(C)C)C2CCCCC2)cn1 [Compound 55]
0.4	CCOc1ccc(Nc2cc(C3(C(=O)O)CCC3)ccc2N(CC(C)C)C2CCOCC2)cc1 [Compound 73]
2.3	CCOc1ncc(Nc2cc(C3(C(=O)O)CCC3)cnc2N(CC(C)C)C2CCOCC2)cn1 [Compound 122]
3	CC(C)CN(c1ccc(C2(C(=O)O)CCC2)cc1Nc1ccc(S(C)(=O)=O)cc1)C1CCOCC1 [Compound 77]
7.5	CCOc1ncc(Nc2cc(C3(C(=O)O)CCC3)cnc2N2CCC(c3ccccc3)CC2)cn1 [Compound 126]
6.3	CC(C)CN(CC(C)C)c1ccc(C2(C(=O)O)CC2)cc1NC(=O)Nc1ccc(F)cc1F [Compound 7, 1-[4-[bis(2-methylpropyl)amino]-3-[[(2,4-difluorophenyl)carbamoyl]amino]phenyl]cyclopropane-1-carboxylic acid]
0.2	CC(C)CN(c1ccc(C2(C(=O)O)CCC2)cc1Nc1ccc(Cl)cc1)C1CCOCC1 [Compound 57]
0.3	CCC(C(=O)O)c1ccc(N(CC(C)C)CC(C)C)c(Nc2ccc(C#N)cc2)c1 (centres unmarked) [Compound 61A]
0.2	CC(C)N(CC1CC1)c1ccc(C2(C(=O)O)CCC2)cc1Nc1ccc(C#N)cc1 [Compound 112]
11.8	CC(C)CN(CC(C)C)c1ccc(OCC(=O)O)cc1NC(=O)Nc1ccc(F)cc1F [Compound 31]
> 316	CC(C)CN(CC(C)C)c1ccc(C2(C(=O)O)CCCC2)cc1Nc1ncccn1 [Compound 49]
0.5	CC(C)N(CC1CC1)c1ncc(C2(C(=O)O)CCC2)cc1Nc1ccc(C#N)cc1 [Compound 116]
0.5	CCN(c1ccc(C2(C(=O)O)CCC2)cc1NC(=O)Nc1ccc(F)cc1F)C1CCCCC1 [Compound 20]
7.7	Cc1cc(NC(=O)Nc2cc(OC(C)(C)C(=O)O)ccc2N(CC(C)C)CC(C)C)on1 [Compound 34]
2.1	COCCN(c1ccc(C2(C(=O)O)CCC2)cc1NC(=O)Nc1ccc(F)cc1F)C1CCCCC1 [Compound 22]
1	CC(C)CN(CC(C)C)c1ccc(C2(c3nnn[nH]3)CCC2)cc1NC(=O)Nc1ccc(F)cc1F [Compound 19]
8.5	CC(C)CN(CC(C)C)c1c(F)cc(Cc2nnn[nH]2)cc1NC(=O)Nc1ccc(F)cc1F [Compound 6]
0.4	CCC(C(=O)O)c1ccc(N(CC(C)C)C2CCOCC2)c(Nc2ccc(C#N)cc2)c1 (centres unmarked) [Compound 70A]

IC50 [nM]	SMILES
2.8	CCOc1ncc(Nc2cc(C3(C(=O)O)CCC3)ccc2N(CC2CC2)C(C)C)cn1 [Compound 98]
0.4	CC(C)CN(CC(C)C)c1ccc(C2(C(=O)O)CCC2)cc1Nc1ccc(Cl)cc1 [Compound 96]
9.3	CC(C)C1COCCN1c1ncc(C2(C(=O)O)CCC2)cc1Nc1ccc(Cl)cc1 (centres unmarked) [Compound 128]
3.5	CC(C)CN(c1ccc(C2(C(=O)O)CCC2)cc1Nc1cccc(Cl)c1)C1CCOCC1 [Compound 100]
0.4	CCC(C(=O)O)c1ccc(N(CC(C)C)C2CCOCC2)c(Nc2ccc(Cl)cc2)c1 (centres unmarked) [Compound 68A]
11.3	CCOc1ncc(Nc2cc(C3(C(=O)O)CCC3)cnc2N(CC)C2CCOCC2)cn1 [Compound 124]
5.4	CC(C)CN(CC(C)C)c1ncc(C2(C(=O)O)CCC2)cc1NC(=O)Nc1ccc(F)cc1F [Compound 83]
20	CC(C)CN(c1ccc(C2(C(=O)O)CCC2)cc1Nc1cc(Cl)cc(Cl)c1)C1CCOCC1 [Compound 103]
134	CC(C)CN(c1ccc(SC(C)(C)C(=O)O)cc1NC(=O)Nc1ccc(F)cc1F)C1CCOCC1 [Compound 43]
1.4	Cc1cc(NC(=O)Nc2cc(C3(C(=O)O)CCCC3)ccc2N(CC(C)C)C2CCOCC2)on1 [Compound 15]
4	CC(C)CN(CC(C)C)c1ccc(C2(C(=O)O)CC(F)(F)C2)cc1NC(=O)Nc1ccc(F)cc1F [Compound 29]
0.8	CC(C)CN(CC(C)C)c1ccc(OC(C)(C)C(=O)O)cc1NC(=O)Nc1ccc(F)cc1F [Compound 32]
13.9	CC(C)CN(c1ccc(C2(C(=O)O)CCC2)cc1NC1CCCC1)C1CCOCC1 [Compound 78]
1.7	CC(C)CN(c1ccc(C2(C(=O)O)CCC2)cc1Nc1ccc(Cl)cc1F)C1CCOCC1 [Compound 88]
6.3	CC(C)CN(c1ccc(C2(C(=O)O)CCC2)cc1Nc1ccc(F)cc1F)C1CCOCC1 [Compound 89]
48	CC(C)CN(CC(C)C)c1ccc(OC(C)(C)C(=O)O)cc1NC(=O)Nc1cncnc1 [Compound 33]
0.4	CC(C)N(CC1CC1)c1ccc(C2(C(=O)O)CCC2)cc1Nc1ccc(Cl)cc1 [Compound 95]
0.2	CC(C)CN(c1ccc(C2(C(=O)O)CCC2)cc1Nc1ccc(C#N)cc1)C1CCCCC1 [Compound 56]
1	CC(C)CN(CC(C)C)c1ccc(C2(c3nnn[nH]3)CC(F)(F)C2)cc1NC(=O)Nc1ccc(F)cc1F [Compound 30]
0.3	CC(C)CN(CC(C)C)c1ncc(C2(C(=O)O)CCC2)cc1Nc1ccc(C#N)cc1 [Compound 93]
0.2	CC(C)CN(c1ncc(C2(C(=O)O)CCC2)cc1Nc1ccc(Cl)cc1)C1CCOCC1 [Compound 92]
19	Cc1cc(NC(=O)Nc2cc(C3(C(=O)O)CCC3)cnc2N(CC(C)C)CC(C)C)on1 [Compound 85]
